Among the data in article PMC4493059, “The Crystal Structure of Thermotoga maritima Class III Ribonucleotide Reductase Lacks a Radical Cysteine Pre-Positioned in the Active Site” (PLoS ONE, 2015) are X-ray crystallography and stoichiometry N values, retold here.

In one assay the target is T1, tmNrdD (Thermotoga maritima, UniProt Q9WYL6).
T1 construct: gene TM_0385; recombinant in E. coli, homodimer; residues to 651, Gly621 radical site
Put plainly: X-ray crystallography. The class given is binding.

Assay [1] deals with anaerobic (class III) ribonucleotide reductase from Thermotoga maritima (Thermotoga maritima). Put plainly: crystal structure; tmNrdD dimer in the asymmetric unit, space group P2_(1); apo forms with glycerol, MES or citrate in the active site, and complexes with dATP or dATP/CTP; resolutions from 2.4 Å to 1.92 Å.

T1 sequence (Q9WYL6 entry or part of it): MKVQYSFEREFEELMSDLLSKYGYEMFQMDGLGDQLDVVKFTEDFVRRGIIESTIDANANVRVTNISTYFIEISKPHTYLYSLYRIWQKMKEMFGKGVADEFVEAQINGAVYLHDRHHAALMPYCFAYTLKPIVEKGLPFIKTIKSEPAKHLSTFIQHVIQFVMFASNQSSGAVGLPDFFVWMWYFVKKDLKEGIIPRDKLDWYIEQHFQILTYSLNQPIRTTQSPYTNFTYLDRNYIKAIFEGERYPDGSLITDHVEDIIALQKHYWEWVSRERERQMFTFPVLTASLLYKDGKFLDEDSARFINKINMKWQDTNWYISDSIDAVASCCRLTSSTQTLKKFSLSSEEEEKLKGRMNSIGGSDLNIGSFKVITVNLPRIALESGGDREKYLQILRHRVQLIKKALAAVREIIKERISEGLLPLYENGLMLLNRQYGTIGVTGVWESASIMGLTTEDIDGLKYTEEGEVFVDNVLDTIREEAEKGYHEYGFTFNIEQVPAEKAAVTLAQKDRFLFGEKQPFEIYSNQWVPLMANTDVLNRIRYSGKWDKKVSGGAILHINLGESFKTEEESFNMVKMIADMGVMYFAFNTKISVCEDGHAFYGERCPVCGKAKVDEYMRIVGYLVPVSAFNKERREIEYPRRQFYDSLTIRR

For the molecule `Nc1ccn([C@@H]2O[C@H](COP(=O)(O)OP(=O)(O)OP(=O)(O)O)[C@@H](O)[C@H]2O)c(=O)n1` [CTP], the X-ray crystallography entry on tmNrdD (active site, with effector dATP, soak or co-crystal 2 mM CTP, also reduced to dCTP in assay with MBP-tmNrdG and T. maritima cell extract) is “represents the first structure of an anaerobic, class III RNR with a substrate”.

Consider “anaerobic (class III) ribonucleotide reductase from Thermotoga maritima (enzyme)”, for which the stoichiometry N (in general, the number of molecules, sites or subunits per partner or assembly) in assay [1] stood at 2. Consider `Nc1ncnc2c1ncn2[C@H]1C[C@H](O)[C@@H](COP(=O)(O)OP(=O)(O)OP(=O)(O)O)O1` [dATP], for which the X-ray crystallography entry at tmNrdD (allosteric specificity effector site at dimer interface, Mg2+ (Mn2+ substituted), dATP alone 4COL, also with CTP 4COJ, soak or co-crystal 0.5 mM dATP) is “The effector dATP binds at the dimer interface, along the length of helices αA and αB”.
